# Data as given in PubChem BioAssay AID1259411 (Chemical Carcinogenesis Research Information System (CCRIS), 2018).
# Activity calls are given as the source filed them. The rule behind the calls is not given here.
# Tested on: rodent carcinogenicity bioassays, tumor incidence
# Test: CCRIS carcinogenicity studies
# In short: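 Archive of carcinogenicity, mutagenicity, tumor promotion and tumor inhibition results drawn from journals, NCI reports and other sources, expert-reviewed; covers 1985-2011 and is no longer updated.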
structure (smiles),measurement,setting,value
CC=O,carcinogen call,"Species: RAT, Strain/Sex: WISTAR/FEMALE, Route: INHALATION, Dose: 0, 750, 1500, 3000 PPM 6 HR/D 5 D/WK AFTER 4 MO HIGH DOSE REDUCED TO 2150 PPM THEN 1500 PPM AT 6 MO AND 1000 PPM AT 12 M, Dose: 0, 750, 1500, 3000 PPM 6 HR/D 5 D/WK AFTER 4 MO HIGH DOSE REDUCED TO 2150 PPM THEN 1500 PPM AT 6 MO AND 1000 PPM AT 12 M, Tumor Site: Type of Lesion: NASAL CAVITY: TUMOR",active; positive
same,carcinogen call,"Species: RAT, Strain/Sex: WISTAR/MALE, Route: INHALATION, Dose: 0, 750, 1500, 3000 PPM 6 HR/D 5 D/WK AFTER 4 MO HIGH DOSE REDUCED TO 2150 PPM THEN 1500 PPM AT 6 MO AND 1000 PPM AT 12 M, Dose: 0, 750, 1500, 3000 PPM 6 HR/D 5 D/WK AFTER 4 MO HIGH DOSE REDUCED TO 2150 PPM THEN 1500 PPM AT 6 MO AND 1000 PPM AT 12 M, Tumor Site: Type of Lesion: NASAL CAVITY: TUMOR",active; positive
Cc1c[nH]c(=O)[nH]c1=O,carcinogen call,"Species: RAT, Strain/Sex: F344/MALE, Route: ORAL, Dose: 0, 1, 3% IN DIET FOR 36 WK (STUDY DURATION: 40 WK), Dose: 0, 1, 3% IN DIET FOR 36 WK (STUDY DURATION: 40 WK), Tumor Site: Type of Lesion: BLADDER: PAPILLOMA, CARCINOMA",active; positive
CC1CN(N=O)CO1 (stereo not drawn),carcinogen call,"Species: HAMSTER, Strain/Sex: SYRIAN/MALE, Route: INTRAGASTRIC, Dose: 0, 25 MG/ML IN 0.2 ML STERILIZED WATER 1/WK FOR 24 WK (TOTAL DOSE 120 MG) (STUDY DURATION: LIFESPAN), Tumor Site: Type of Lesion: LIVER: HEPATOCELLULAR CARCINOMA, ADENOMA, HEMANGIOSARCOMA, CHOLANGIOCARCINOMA, PANCREAS: DUCTAL CARCINOMA",active; positive
same,carcinogen call,"Species: RAT, Strain/Sex: F344/FEMALE, Route: ORAL, Dose: 40 MG/L IN DRINKING WATER FOR 50 WK, Tumor Site: Type of Lesion: LIVER: HEPATOCELLULAR CARCINOMA, HEMANGIOENDOTHELIAL SARCOMA",active; positive
O=C1C=Cc2cccc3cccc1c23,carcinogen call,"Species: MOUSE, Strain/Sex: ICR/FEMALE, Route: INTRAPERITONEAL, Dose: 0, 0.84, 2.1, 4.2 MG (TOTAL DOSES) ADMINISTERED TO NEWBORN MICE AS 1/7 ON DAY 1, 2/7 ON DAY 8 AND 4/7 ON DAY 15 (STUDY D, Dose: 0, 0.84, 2.1, 4.2 MG (TOTAL DOSES) ADMINISTERED TO NEWBORN MICE AS 1/7 ON DAY 1, 2/7 ON DAY 8 AND 4/7 ON DAY 15 (STUDY D",inactive; negative
same,carcinogen call,"Species: MOUSE, Strain/Sex: ICR/MALE, Route: INTRAPERITONEAL, Dose: 0, 0.84, 2.1, 4.2 MG (TOTAL DOSES) ADMINISTERED TO NEWBORN MICE AS 1/7 ON DAY 1, 2/7 ON DAY 8 AND 4/7 ON DAY 15 (STUDY D, Dose: 0, 0.84, 2.1, 4.2 MG (TOTAL DOSES) ADMINISTERED TO NEWBORN MICE AS 1/7 ON DAY 1, 2/7 ON DAY 8 AND 4/7 ON DAY 15 (STUDY D, Tumor Site: Type of Lesion: LUNG: TUMOR",active; positive
CO[Si](CCC1CCC2OC2C1)(OC)OC (stereo not drawn),carcinogen call,"Species: MOUSE, Strain/Sex: C3H/MALE, Route: DERMAL, Dose: 0, 25 MG IN ACETONE 3/WK FOR DURATION OF STUDY (STUDY DURATION: LIFETIME), Tumor Site: Type of Lesion: SKIN: CARCINOMA",active; positive
